Earlier results on 28 compounds are cited in PMC12525602, “Identification of Selective α-Glucosidase Inhibitors via Virtual Screening with Machine Learning” (Molecules, 2025).

The structures appear in SMILES notation.

In the first data set the test system is α-glucosidase. To be noted: activity label in the 300-compound modeling dataset (Table S5); 1 = active, 0 = inactive; cited from earlier work.
Regarding `COc1ccc([C@@H]2CC(=O)c3c(O)cc(O[C@@H]4O[C@H](CO[C@@H]5O[C@@H](C)[C@H](O)[C@@H](O)[C@H]5O)[C@@H](O)[C@H](O)[C@H]4O)cc3O2)cc1O` [compound 185], the activity was 1.

`Cc1ccc(-c2csc(N/N=C/c3ccc(N4CCC(C)CC4)cc3)n2)cc1` [compound 186]: the activity is given as 1. For the compound `COc1cccc(C(=O)C2C(O)c3ccccc3S(=O)(=O)N2CC(=O)Nc2ccccc2Br)c1` (stereo not shown) [compound 187], the activity is on record as 1. Turning to `CCCCCCCCCCCCCCCC(N)=O` [compound 188], the activity was 1. As for `COc1ccc(Br)cc1-c1nnc(/N=C(/CSc2nnc3c(n2)[nH]c2ccccc23)c2ccc(C)cc2)s1` [compound 189], the activity was 1. Consider `Nc1ccc(CCC(=O)N2CC[C@@H](O)[C@@H](O)C2)cc1` [compound 190], for which the activity was 1. For the compound `O=C(NNS(=O)(=O)c1ccc(Cl)cc1)c1cc2cc(F)ccc2[nH]1` [compound 191], the activity is 1. As to `O=C(CCc1ccc(O)cc1)c1c(O)cc(O)cc1O[C@@H]1O[C@H](CO)[C@@H](O)[C@H](O)[C@H]1O` [compound 192], the activity is reported as 1. In the case of `N#Cc1ccc2[nH]c(-c3nnc(Nc4ccc(Cl)c(Cl)c4)s3)cc2c1` [compound 193], the activity is reported as 1. As to `CC1CCN(c2ccc(/C=N/Nc3nc(-c4ccc(O)cc4)cs3)cc2)CC1` [compound 194], the activity is given as 1. As to `O=C(O)/C=C/c1ccc(O)cc1` [compound 195], the activity is given as 1.

The data set is the same for the next values; noted with them: activity label of the modeling dataset, Table S5; cited from earlier work.
In the case of `COc1cc(/C=C(\C(=O)O)c2cc(/C=C/C(=O)O)cc(OC)c2O)ccc1O` [compound 166], the activity is given as 1.

Consider `COc1cc(O)c(CC=C(C)C)c(O)c1C(=O)/C=C/c1ccc(O)cc1` [compound 167], for which the activity is 1.

For the compound `COc1cccc(C(=O)C2C(O)c3ccccc3S(=O)(=O)N2CC(=O)Nc2ccccc2Cl)c1` (stereo not shown) [compound 168], the activity is given as 1. `CC(C)=CCc1c(O)cc2c(c1O)C(=O)CC(c1ccc(O)cc1)O2` (stereo not shown) [compound 169]: the activity is reported as 1. On to `N#Cc1ccc2[nH]c(-c3nnc(Nc4ccc(F)cc4)s3)cc2c1` [compound 170], for which the activity is on record as 1. For the compound `O=[N+]([O-])c1ccccc1-c1nnc(/N=C(/CSc2nnc3c(n2)[nH]c2ccccc23)c2cccc([N+](=O)[O-])c2Br)s1` [compound 171], the activity was 1. As for `COc1ccc(/C(CSc2nnc3c(n2)[nH]c2ccccc23)=N\c2nnc(-c3cc(Br)ccc3OC)s2)cc1` [compound 173], the activity is 1. On to `CC(C)C1=CC2=CC[C@@H]3[C@](C)(CCC[C@@]3(C)C(=O)O)[C@H]2CC1` [compound 174], for which the activity was 1. `C[C@@H]1O[C@@H](Oc2c(-c3ccc(O)c(O)c3)oc3cc(O)cc(O)c3c2=O)[C@H](O)[C@H](O)[C@H]1O` [compound 175]: the activity was 1. In the case of `O=C(CCc1ccc(O)cc1)c1c(O)cc(O)cc1O` [compound 176], the activity is given as 1.

On to `COc1cccc(C(=O)C2=C(O)c3ccccc3S(=O)(=O)C2CC(=O)Nc2ccc(Cl)cc2)c1` (stereo not shown) [compound 177], for which the activity was 1.

Consider `COc1cccc(C(=O)C2C(O)c3ccccc3S(=O)(=O)N2CC(=O)Nc2ccc(Cl)cc2)c1` (stereo not shown) [compound 178], for which the activity is listed as 1. As for `COc1cc(O)c(CC=C(C)C)c2c1C(=O)CC(c1ccc(O)cc1)O2` (stereo not shown) [compound 179], the activity is 1. With `O=[N+]([O-])c1cccc(/C(CSc2nnc3c(n2)[nH]c2ccccc23)=N\c2nnc(-c3cc(Cl)cc(Cl)c3O)s2)c1` [compound 180], the activity is given as 1. As for `O=C(NNS(=O)(=O)c1ccc(Br)cc1)c1cc2cc(F)ccc2[nH]1` [compound 182], the activity is reported as 1. Regarding `COc1cc(/C=C/C(=O)O)ccc1O` [compound 183], the activity is 1. With `N#Cc1ccc2[nH]c(-c3nnc(Nc4ccccc4F)s3)cc2c1` [compound 184], the activity was 1.
